Results as given in paper PMC8795677 (Frontiers in Chemistry, 2022).
Entries after “also recorded” stand apart in the source; their conditions may differ.

How the values were obtained:
[1] = biological target: T1, mGlu1 V405H/D322C/D324H (HCH) mutant (Rattus norvegicus, UniProt P23385, D322C/D324H/V405H); assay: Fluorescent Ca2+ imaging in transfected HEK293 cells, HCH mutant; type: cell-based; conditions: for activation of HCH mutant (Δratio): secondary screening, 3 μM metal ion or complex
T1 construct: expressed in transfected cells; host or cells: HEK293
T1 sequence (P23385 19-1199 D322C/D324H/V405H): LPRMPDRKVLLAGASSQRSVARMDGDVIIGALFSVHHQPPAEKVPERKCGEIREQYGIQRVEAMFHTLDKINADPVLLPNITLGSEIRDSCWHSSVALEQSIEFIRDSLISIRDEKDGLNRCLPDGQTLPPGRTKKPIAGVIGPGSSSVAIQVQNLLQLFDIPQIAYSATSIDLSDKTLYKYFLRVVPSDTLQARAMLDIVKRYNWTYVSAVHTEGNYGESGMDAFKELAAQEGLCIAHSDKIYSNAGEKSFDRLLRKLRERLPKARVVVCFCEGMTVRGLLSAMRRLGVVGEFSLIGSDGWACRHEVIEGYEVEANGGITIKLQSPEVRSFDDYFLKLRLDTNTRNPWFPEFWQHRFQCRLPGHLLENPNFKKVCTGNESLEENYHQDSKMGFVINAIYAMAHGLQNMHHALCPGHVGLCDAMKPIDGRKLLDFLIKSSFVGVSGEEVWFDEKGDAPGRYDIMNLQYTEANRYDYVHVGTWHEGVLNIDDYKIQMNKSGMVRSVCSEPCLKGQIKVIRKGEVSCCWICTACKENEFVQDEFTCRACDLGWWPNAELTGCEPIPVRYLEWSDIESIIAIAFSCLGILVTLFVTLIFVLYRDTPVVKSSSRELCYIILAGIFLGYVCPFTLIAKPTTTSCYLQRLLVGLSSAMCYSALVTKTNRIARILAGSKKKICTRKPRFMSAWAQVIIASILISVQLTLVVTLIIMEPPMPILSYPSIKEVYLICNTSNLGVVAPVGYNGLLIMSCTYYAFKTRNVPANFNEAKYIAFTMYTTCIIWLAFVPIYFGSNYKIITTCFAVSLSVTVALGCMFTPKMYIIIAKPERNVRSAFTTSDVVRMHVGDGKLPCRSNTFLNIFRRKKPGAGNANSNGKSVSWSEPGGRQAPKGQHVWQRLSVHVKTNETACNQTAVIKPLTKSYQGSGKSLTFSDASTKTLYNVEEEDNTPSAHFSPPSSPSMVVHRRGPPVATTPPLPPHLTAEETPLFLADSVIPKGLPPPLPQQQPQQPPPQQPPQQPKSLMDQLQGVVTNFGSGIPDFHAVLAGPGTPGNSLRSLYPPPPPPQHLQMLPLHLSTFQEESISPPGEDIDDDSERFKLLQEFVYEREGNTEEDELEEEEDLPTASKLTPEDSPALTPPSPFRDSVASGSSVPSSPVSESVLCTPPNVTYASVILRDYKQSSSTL

mGlu1(N264H) mutant [2] = biological target: T2, mGlu1(N264H) mutant (Rattus norvegicus, UniProt P23385, N264H); design: method as in Ojima et al., 2021; conditions: previously reported; ref Ojima et al., 2021; cited from earlier work
T2 construct: expressed in transfected cells; host or cells: HEK293
T2 sequence (P23385 19-1199 N264H): as the sequence (P23385 19-1199 D322C/D324H/V405H) above, with N246H, C304D, H306D, H387V counted along it

WT mGlu1 = biological target: T3, WT mGlu1 (Rattus norvegicus, UniProt P23385); assay: Fluorescent Ca2+ imaging (Fura-2) in transfected HEK293 cells, WT mGlu1; type: cell-based; conditions: at the concentration of the mutant's EC50 (1.5 µM Cu^2+; 0.44 µM Zn^2+)
T3 construct: expressed in transfected cells; host or cells: HEK293
T3 sequence (P23385 19-1199): as the sequence (P23385 19-1199 D322C/D324H/V405H) above, with C304D, H306D, H387V counted along it

[3] = biological target: T4, mGlu1 Q73H/D324H/E325C mutant (Rattus norvegicus, UniProt P23385, D324H/E325C/Q73H); assay: Fluorescent Ca2+ imaging in transfected HEK293 cells, Q73H/D324H/E325C mutant; type: cell-based; conditions: for activation of Q73H/D324H/E325C mutant (Δratio): primary screening, 3 μM metal ion or complex
T4 construct: expressed in transfected cells; host or cells: HEK293
T4 sequence (P23385 19-1199 Q73H/D324H/E325C): as the sequence (P23385 19-1199 D322C/D324H/V405H) above, with Q55H, C304D, E307C, H387V counted along it

mGlu1 E325C mutant = biological target: T5, mGlu1 E325C mutant (Rattus norvegicus, UniProt P23385, E325C); assay: Fluorescent Ca2+ imaging in transfected HEK293 cells, E325C mutant; type: cell-based; conditions: for activation / metal selectivity of E325C mutant (Δratio): heat map: 3 μM metal ion or complex
T5 construct: expressed in transfected cells; host or cells: HEK293
T5 sequence (P23385 19-1199 E325C): as the sequence (P23385 19-1199 D322C/D324H/V405H) above, with C304D, H306D, E307C, H387V counted along it

mGlu1(N264H) mutant [4] = biological target: T2, mGlu1(N264H) mutant; assay: Fluorescent Ca2+ imaging in transfected HEK293 cells, N264H mutant; type: cell-based; conditions: for activation of N264H mutant (Δratio): heat map: 3 μM metal ion or complex
[5] = biological target: T6, mGlu1 V405C/D322H/D324H (CHH) mutant (Rattus norvegicus, UniProt P23385, D322H/D324H/V405C); assay: Fluorescent Ca2+ imaging in transfected HEK293 cells, CHH mutant; type: cell-based; conditions: secondary screening, 3 μM metal ion or complex
T6 construct: expressed in transfected cells; host or cells: HEK293
T6 sequence (P23385 19-1199 D322H/D324H/V405C): as the sequence (P23385 19-1199 D322C/D324H/V405H) above, with C304H, H387C counted along it

mGlu1 Q73H/D324H mutant = biological target: T7, mGlu1 Q73H/D324H mutant (Rattus norvegicus, UniProt P23385, D324H/Q73H); assay: Fluorescent Ca2+ imaging in transfected HEK293 cells, Q73H/D324H mutant; type: cell-based; conditions: 1 μM CuCl2
T7 construct: expressed in transfected cells; host or cells: HEK293
T7 sequence (P23385 19-1199 Q73H/D324H): as the sequence (P23385 19-1199 D322C/D324H/V405H) above, with Q55H, C304D, H387V counted along it

mGlu1 Q73H/E325C mutant = biological target: T8, mGlu1 Q73H/E325C mutant (Rattus norvegicus, UniProt P23385, E325C/Q73H); assay: Fluorescent Ca2+ imaging in transfected HEK293 cells, Q73H/E325C mutant; type: cell-based; conditions: 1 μM CuCl2
T8 construct: expressed in transfected cells; host or cells: HEK293
T8 sequence (P23385 19-1199 Q73H/E325C): as the sequence (P23385 19-1199 D322C/D324H/V405H) above, with Q55H, C304D, H306D, E307C, H387V counted along it

mGlu1 D324H/E325C mutant = biological target: T9, mGlu1 D324H/E325C mutant (Rattus norvegicus, UniProt P23385, D324H/E325C); assay: Fluorescent Ca2+ imaging in transfected HEK293 cells, D324H/E325C mutant; type: cell-based; conditions: 1 μM CuCl2
T9 construct: expressed in transfected cells; host or cells: HEK293
T9 sequence (P23385 19-1199 D324H/E325C): as the sequence (P23385 19-1199 D322C/D324H/V405H) above, with C304D, E307C, H387V counted along it

mGlu1 H55F/E325C mutant = biological target: T10, mGlu1 H55F/E325C mutant (Rattus norvegicus, UniProt P23385, E325C/H55F); assay: Fluorescent Ca2+ imaging in transfected HEK293 cells, H55F/E325C mutant; type: cell-based; conditions: 1 μM CuCl2, compared with E325C
T10 construct: expressed in transfected cells; host or cells: HEK293
T10 sequence (P23385 19-1199 H55F/E325C): as the sequence (P23385 19-1199 D322C/D324H/V405H) above, with H37F, C304D, H306D, E307C, H387V counted along it

mGlu1 E72A/E325C mutant = biological target: T11, mGlu1 E72A/E325C mutant (Rattus norvegicus, UniProt P23385, E325C/E72A); assay: Fluorescent Ca2+ imaging in transfected HEK293 cells, E72A/E325C mutant; type: cell-based; conditions: 1 μM CuCl2, compared with E325C
T11 construct: expressed in transfected cells; host or cells: HEK293
T11 sequence (P23385 19-1199 E72A/E325C): as the sequence (P23385 19-1199 D322C/D324H/V405H) above, with E54A, C304D, H306D, E307C, H387V counted along it

mGlu1 Q73A/E325C mutant = biological target: T12, mGlu1 Q73A/E325C mutant (Rattus norvegicus, UniProt P23385, E325C/Q73A); assay: Fluorescent Ca2+ imaging in transfected HEK293 cells, Q73A/E325C mutant; type: cell-based; conditions: 1 μM CuCl2, compared with E325C
T12 construct: expressed in transfected cells; host or cells: HEK293
T12 sequence (P23385 19-1199 Q73A/E325C): as the sequence (P23385 19-1199 D322C/D324H/V405H) above, with Q55A, C304D, H306D, E307C, H387V counted along it

[6] = biological target: T13, mGlu1 V405H/D322H/D324C (HHC) mutant (Rattus norvegicus, UniProt P23385, D322H/D324C/V405H); assay: Fluorescent Ca2+ imaging in transfected HEK293 cells, HHC mutant; type: cell-based; conditions: primary screening, 3 μM metal ion or complex
T13 construct: expressed in transfected cells; host or cells: HEK293
T13 sequence (P23385 19-1199 D322H/D324C/V405H): as the sequence (P23385 19-1199 D322C/D324H/V405H) above, with C304H, H306C counted along it

mGlu1 V405H/D322C mutant = biological target: T14, mGlu1 V405H/D322C mutant (Rattus norvegicus, UniProt P23385, D322C/V405H); assay: Fluorescent Ca2+ imaging in transfected HEK293 cells, V405H/D322C mutant; type: cell-based; conditions: compared with HCH mutant
T14 construct: expressed in transfected cells; host or cells: HEK293
T14 sequence (P23385 19-1199 D322C/V405H): as the sequence (P23385 19-1199 D322C/D324H/V405H) above, with H306D counted along it

mGlu1 V405H/D324H mutant = biological target: T15, mGlu1 V405H/D324H mutant (Rattus norvegicus, UniProt P23385, D324H/V405H); assay: Fluorescent Ca2+ imaging in transfected HEK293 cells, V405H/D324H mutant; type: cell-based; conditions: compared with HCH mutant
T15 construct: expressed in transfected cells; host or cells: HEK293
T15 sequence (P23385 19-1199 D324H/V405H): as the sequence (P23385 19-1199 D322C/D324H/V405H) above, with C304D counted along it

mGlu1 D322C/D324H mutant = biological target: T16, mGlu1 D322C/D324H mutant (Rattus norvegicus, UniProt P23385, D322C/D324H); assay: Fluorescent Ca2+ imaging in transfected HEK293 cells, D322C/D324H mutant; type: cell-based; conditions: compared with HCH mutant
T16 construct: expressed in transfected cells; host or cells: HEK293
T16 sequence (P23385 19-1199 D322C/D324H): as the sequence (P23385 19-1199 D322C/D324H/V405H) above, with H387V counted along it

[7] = biological target: T17, mGlu1 H55/P58H/N264C mutant (Rattus norvegicus, UniProt P23385, N264C/P58H); assay: Fluorescent Ca2+ imaging in transfected HEK293 cells, H55/P58H/N264C mutant; type: cell-based; conditions: primary screening, 3 μM metal ion or complex
T17 construct: expressed in transfected cells; host or cells: HEK293
T17 sequence (P23385 19-1199 P58H/N264C): as the sequence (P23385 19-1199 D322C/D324H/V405H) above, with P40H, N246C, C304D, H306D, H387V counted along it

Molecule	activation of WT mGlu1 in dose dependency (WT mGlu1)	activation / metal selectivity of E325C mutant (Δratio) (mGlu1 E325C mutant)	activation of N264H mutant (Δratio) (mGlu1(N264H) mutant [4])	activation of CHH mutant (Δratio) [5]	activation of HCH mutant (Δratio) [1]	activation of mGlu1(N264H) mutant (mGlu1(N264H) mutant [2])	activation of Q73H/D324H/E325C mutant (Δratio) [3]	activation of V405H/D322H/D324C (HHC) mutant (Δratio) [6]	further results
[Cd+2] [Cd^2+]	–	–	–	–	moderately	failed to activate	–	–	–
[Cu+2] [Cu^2+, CuCl2]	not activated	high selectivity	not activated	strongly activated	not activated at all; also recorded: insensitive	failed to activate	strongly activated	–	EC50 ([3]; HEK293 cells, Q73H/D324H/E325C mutant, dose dependency, read-out: EC50 of activation (Δratio, [Ca2+]i)): 1500 nM; Cu^2+-induced response (Δratio) of E325C single mutant (mGlu1 E325C mutant; 1 μM CuCl2): maintained; EC50 (mGlu1 E325C mutant; HEK293 cells, E325C mutant, dose dependency, read-out: EC50 of activation (Δratio, [Ca2+]i)): 220 nM; activation of E325C mutant by Cu^2+ in the co-presence of Pd (bpy) (mGlu1 E325C mutant; [CuCl2] = 1 μM, [Pd(bpy)] = 3 μM): impaired; cell-specific activation of E325C-expressing cells in mixed culture (mGlu1 E325C mutant; three HEK293 cell types on one coverslip, sequential perfusion 60 s, 1 μM CuCl2): selectively activated; Cu^2+-induced response (Δratio) of Q73H/D324H mutant (mGlu1 Q73H/D324H mutant): loss in sensitivity; Cu^2+-induced response (Δratio) of Q73H/E325C mutant (mGlu1 Q73H/E325C mutant): prominent Cu^2+-induced responses; Cu^2+-induced response (Δratio) of D324H/E325C mutant (mGlu1 D324H/E325C mutant): prominent Cu^2+-induced responses; Cu^2+-induced response (Δratio) of H55F/E325C mutant (mGlu1 H55F/E325C mutant): drastically decreased; Cu^2+-induced response (Δratio) of E72A/E325C mutant (mGlu1 E72A/E325C mutant): drastically decreased; sensitivity to Cu^2+ (Δratio) of Q73A/E325C mutant (mGlu1 Q73A/E325C mutant): slightly affected
[Ni+2] [Ni^2+]	–	–	–	strongly activated	moderately	failed to activate	moderate sensitivity	showed sensitivity; also recorded: activated	–
Pd-2,2′-bipyridine [Pd (bpy)]	–	not activated	selectively activated	–	not activated at all; also recorded: insensitive	selective activation	not activated	activated	activation of N264H mutant by Pd(bpy) in the co-presence of Cu2+ or Zn2+ (mGlu1(N264H) mutant [4]; [Pd(bpy)] = 3 μM, [CuCl2] = 1 μM, [ZnCl2] = 3 μM): did not affect; cell-specific activation of N264H-expressing cells in mixed culture (mGlu1(N264H) mutant [4]; three HEK293 cell types on one coverslip, sequential perfusion 60 s, 3 μM Pd (bpy)): selectively activated; activation of H55/P58H/N264C mutant (Δratio) [7]: activated

Second part, led by results:

activation of WT mGlu1 in dose dependency (WT mGlu1)	activation / metal selectivity of E325C mutant (Δratio) (mGlu1 E325C mutant)	activation of N264H mutant (Δratio) (mGlu1(N264H) mutant [4])	activation of CHH mutant (Δratio) [5]	Molecule	activation of HCH mutant (Δratio) [1]	activation of mGlu1(N264H) mutant (mGlu1(N264H) mutant [2])	activation of Q73H/D324H/E325C mutant (Δratio) [3]	activation of V405H/D322H/D324C (HHC) mutant (Δratio) [6]	further results
–	–	–	strongly activated	[Pd+2] [Pd^2+]	–	failed to activate	–	–	–
not activated at all	not activated	not activated	strongly activated	[Zn+2] [Zn^2+, ZnCl2]	activated strongly	failed to activate	–	–	EC50 ([1]; HEK293 cells, HCH mutant, dose dependency, read-out: EC50 of activation (Δratio, [Ca2+]i)): 440 nM; activation of HCH mutant by Zn^2+ in the co-presence of Cu^2+ ([1]; [ZnCl2] = 3 μM, [CuCl2] = 1 μM): impaired; cell-specific activation of HCH-expressing cells in mixed culture ([1]; three HEK293 cell types on one coverslip, sequential perfusion 60 s, 3 μM ZnCl2): selectively activated; Zn^2+-induced response (Δratio) of V405H/D322C mutant (mGlu1 V405H/D322C mutant): significantly impaired; Zn^2+-induced response (Δratio) of V405H/D324H mutant (mGlu1 V405H/D324H mutant): significantly impaired; Zn^2+-induced response (Δratio) of D322C/D324H mutant (mGlu1 D322C/D324H mutant): significantly impaired
